Experimental data as given in ChEMBL document CHEMBL1201862, “PubChem BioAssay data set” (2004).
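Test compounds were applied to cells in 96-well plates for 48 hours at 5 doses. GI50 = concentration required for 50% inhibition of growth.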 Calls of active or inactive are those of the source. Rule as the data show it: active = GI50 up to about 1.1 µM and inactive = higher.

Legend:
Assay in all cases: NCI anticancer screen, dose series, 48 h
A549 = system: A549
ACHN = system: ACHN
K562 = system: K562
KM12 = system: KM12
MOLT-4 = system: MOLT-4
Malme-3M = system: Malme-3M
NCI-H226 = system: NCI-H226
NCI-H460 = system: NCI-H460
NCI-H522 = system: NCI-H522
OVCAR-3 = system: OVCAR-3
OVCAR-5 = system: OVCAR-5
SF-295 = system: SF-295
SK-MEL-28 = system: SK-MEL-28
SK-MEL-5 = system: SK-MEL-5
SK-OV-3 = system: SK-OV-3
SNB-75 = system: SNB-75
SW-620 = system: SW-620
UACC-257 = system: UACC-257
MDA-N = system: MDA-N
NCI/ADR-RES = system: NCI/ADR-RES

Structure (SMILES): CS/C(=N\C(=S)Nc1ccccc1)Nc1ccccc1
- GI50 (A549): 16.5 µM (inactive)
- GI50 (ACHN): 17.5 µM (inactive)
- GI50 (K562): 12.6 µM (inactive)
- GI50 (KM12): 25.6 µM (inactive)
- GI50 (MOLT-4): 12.9 µM (inactive)
- GI50 (Malme-3M): 15.2 µM (inactive)
- GI50 (NCI-H226): 18.5 µM (inactive)
- GI50 (NCI-H460): 12 µM (inactive)
- GI50 (NCI-H522): 14.6 µM (inactive)
- GI50 (OVCAR-3): 21 µM (inactive)
- GI50 (OVCAR-5): 23.6 µM (inactive)
- GI50 (SF-295): 21.5 µM (inactive)
- GI50 (SK-MEL-28): 15 µM (inactive)
- GI50 (SK-MEL-5): 6.01 µM (inactive)
- GI50 (SK-OV-3): 27 µM (inactive)
- GI50 (SNB-75): 16.3 µM (inactive)
- GI50 (SW-620): 23.1 µM (inactive)
- GI50 (UACC-257): > 10 µM (inactive)

Structure (SMILES): CCCCCCCN1C(=O)C(O)(c2ccc(C3(O)C(=O)N(CCCCCCC)c4ccccc43)s2)c2ccccc21 (stereo not given)
- GI50 (ACHN): 2.26 µM (inactive)
- GI50 (K562): 2.99 µM (inactive)
- GI50 (KM12): 1.8 µM (inactive)
- GI50 (MDA-N): 1.99 µM (inactive)
- GI50 (MOLT-4): 2.03 µM (inactive)
- GI50 (NCI-H460): 1.79 µM (inactive)
- GI50 (OVCAR-5): 1.68 µM (inactive)
- GI50 (SF-295): 1.85 µM (inactive)
- GI50 (SK-MEL-28): 2.07 µM (inactive)
- GI50 (SK-MEL-5): 1.79 µM (inactive)
- GI50 (SK-OV-3): 0.753 µM (active)
- GI50 (SNB-75): 5.4 µM (inactive)
- GI50 (SW-620): 2.18 µM (inactive)
- GI50 (UACC-257): 2.07 µM (inactive)

Structure (SMILES): O=[N+]([O-])c1ccc(/C=C(/c2ccc([N+](=O)[O-])o2)S(=O)(=O)c2ccccc2)cc1
- GI50 (A549): > 100 µM (inactive)
- GI50 (ACHN): > 100 µM (inactive)
- GI50 (K562): 36.2 µM (inactive)
- GI50 (KM12): 41.1 µM (inactive)
- GI50 (MOLT-4): 16.8 µM (inactive)
- GI50 (Malme-3M): 25.2 µM (inactive)
- GI50 (NCI-H226): 13.4 µM (inactive)
- GI50 (NCI-H460): > 100 µM (inactive)
- GI50 (NCI-H522): 39.4 µM (inactive)
- GI50 (NCI/ADR-RES): 47.5 µM (inactive)
- GI50 (OVCAR-3): 97.9 µM (inactive)
- GI50 (OVCAR-5): > 100 µM (inactive)
- GI50 (SF-295): > 100 µM (inactive)
- GI50 (SK-MEL-28): > 100 µM (inactive)
- GI50 (SK-MEL-5): 13.9 µM (inactive)
- GI50 (SK-OV-3): > 100 µM (inactive)
- GI50 (SNB-75): > 100 µM (inactive)
- GI50 (SW-620): 52 µM (inactive)
- GI50 (UACC-257): 29.4 µM (inactive)

Structure (SMILES): O=P(c1ccccc1)(c1ccccc1)c1ccc2c(c1)OCCOCCOCCOCCO2
- GI50 (A549): > 100 µM (inactive)
- GI50 (ACHN): > 100 µM (inactive)
- GI50 (K562): > 100 µM (inactive)
- GI50 (KM12): > 100 µM (inactive)
- GI50 (MDA-N): > 100 µM (inactive)
- GI50 (MOLT-4): > 100 µM (inactive)
- GI50 (Malme-3M): > 100 µM (inactive)
- GI50 (NCI-H226): > 100 µM (inactive)
- GI50 (NCI-H460): > 100 µM (inactive)
- GI50 (NCI-H522): > 100 µM (inactive)
- GI50 (SF-295): > 100 µM (inactive)
- GI50 (SK-MEL-28): > 100 µM (inactive)
- GI50 (SK-MEL-5): > 100 µM (inactive)
- GI50 (SK-OV-3): > 100 µM (inactive)
- GI50 (SNB-75): > 100 µM (inactive)
- GI50 (SW-620): > 100 µM (inactive)

Structure (SMILES): C#CC(C)(C)OC(=O)C(=[N+]=[N-])C(C)=O
- GI50 (A549): > 10 µM (inactive)
- GI50 (ACHN): > 10 µM (inactive)
- GI50 (K562): > 10 µM (inactive)
- GI50 (KM12): > 10 µM (inactive)
- GI50 (MDA-N): > 10 µM (inactive)
- GI50 (MOLT-4): > 10 µM (inactive)
- GI50 (Malme-3M): > 10 µM (inactive)
- GI50 (NCI-H226): > 10 µM (inactive)
- GI50 (NCI-H460): > 10 µM (inactive)
- GI50 (OVCAR-3): > 10 µM (inactive)
- GI50 (OVCAR-5): > 10 µM (inactive)
- GI50 (SF-295): > 10 µM (inactive)
- GI50 (SK-MEL-28): > 10 µM (inactive)
- GI50 (SK-MEL-5): > 10 µM (inactive)
- GI50 (SK-OV-3): > 10 µM (inactive)
- GI50 (SNB-75): > 10 µM (inactive)
- GI50 (SW-620): > 10 µM (inactive)
- GI50 (UACC-257): > 10 µM (inactive)

Structure (SMILES): COc1ccc(NS(=O)(=O)c2ccc(/N=C3\C=C(Nc4ccc(S(=O)(=O)Nc5ccc(OC)nn5)cc4)C(=O)c4ccccc43)cc2)nn1
- GI50 (A549): 17.9 µM (inactive)
- GI50 (ACHN): 19.1 µM (inactive)
- GI50 (K562): 61.1 µM (inactive)
- GI50 (KM12): 16.7 µM (inactive)
- GI50 (MOLT-4): 87.9 µM (inactive)
- GI50 (Malme-3M): 19 µM (inactive)
- GI50 (NCI-H226): 19.3 µM (inactive)
- GI50 (NCI-H460): 17.7 µM (inactive)
- GI50 (NCI-H522): 17 µM (inactive)
- GI50 (OVCAR-3): 21 µM (inactive)
- GI50 (OVCAR-5): 19.1 µM (inactive)
- GI50 (SF-295): 17.1 µM (inactive)
- GI50 (SK-MEL-28): 17.5 µM (inactive)
- GI50 (SK-MEL-5): 20.4 µM (inactive)
- GI50 (SK-OV-3): 18.1 µM (inactive)
- GI50 (SNB-75): 19.8 µM (inactive)
- GI50 (SW-620): 18.9 µM (inactive)
- GI50 (UACC-257): 16.9 µM (inactive)

Structure (SMILES): O=C1CCCCC/C1=C\c1cccc(F)c1
- GI50 (A549): > 100 µM (inactive)
- GI50 (ACHN): 35.6 µM (inactive)
- GI50 (K562): 49.5 µM (inactive)
- GI50 (KM12): 59.2 µM (inactive)
- GI50 (MDA-N): 62.5 µM (inactive)
- GI50 (MOLT-4): 24.8 µM (inactive)
- GI50 (Malme-3M): > 100 µM (inactive)
- GI50 (NCI-H460): 54.5 µM (inactive)
- GI50 (NCI/ADR-RES): > 100 µM (inactive)
- GI50 (OVCAR-3): > 100 µM (inactive)
- GI50 (OVCAR-5): > 100 µM (inactive)
- GI50 (SF-295): > 100 µM (inactive)
- GI50 (SK-MEL-28): > 100 µM (inactive)
- GI50 (SK-MEL-5): 66.7 µM (inactive)
- GI50 (SK-OV-3): > 100 µM (inactive)
- GI50 (SNB-75): > 100 µM (inactive)
- GI50 (SW-620): 83.8 µM (inactive)
- GI50 (UACC-257): 59 µM (inactive)

Structure (SMILES): CC(C)(C)c1ccc(OC(=O)Nc2ccc(O)c(C(=O)O)c2)cc1
- GI50 (A549): > 100 µM (inactive)
- GI50 (ACHN): > 100 µM (inactive)
- GI50 (K562): > 100 µM (inactive)
- GI50 (KM12): > 100 µM (inactive)
- GI50 (MOLT-4): > 100 µM (inactive)
- GI50 (Malme-3M): > 100 µM (inactive)
- GI50 (NCI-H226): > 100 µM (inactive)
- GI50 (NCI-H460): > 100 µM (inactive)
- GI50 (NCI-H522): > 100 µM (inactive)
- GI50 (NCI/ADR-RES): > 100 µM (inactive)
- GI50 (OVCAR-3): > 100 µM (inactive)
- GI50 (OVCAR-5): > 100 µM (inactive)
- GI50 (SF-295): > 100 µM (inactive)
- GI50 (SK-MEL-28): > 100 µM (inactive)
- GI50 (SK-MEL-5): > 100 µM (inactive)
- GI50 (SK-OV-3): > 100 µM (inactive)
- GI50 (SNB-75): > 100 µM (inactive)
- GI50 (SW-620): > 100 µM (inactive)
- GI50 (UACC-257): > 100 µM (inactive)
